Test results taken from paper PMC11912471 (Journal of Medicinal Chemistry, 2025).

Columns and labels:
[1] = tested on: polyamine levels in Kelly neuroblastoma cells; experiment: Polyamine analysis (HPLC of dansylated polyamines); type: cell-based; settings: 500 μM inhibitor
Procedure: Polyamines from Kelly neuroblastoma cells treated with 500 μM inhibitors were isolated, dansylated, and analyzed by HPLC. Briefly, polyamines were extracted and protonated in perchloric acid/sodium chloride buffer. To 100 μL of sample, 4.5 nmol of 1,7 diaminoheptane internal standard and 200 μL of 1 M sodium carbonate was added prior to dansylation with 400 μL of 5 mg/mL dansyl chloride (Sigma-Aldrich) for 60 min at 65 °C. One hundred μL of 1 M proline was then added to each reaction and incubated for 20 min at 65 °C. Polyamines were extracted from the mixture using methylene chloride. The methylene chloride was allowed to evaporate, the samples were resuspended in methanol and run through a C18 cleanup column. Samples were then analyzed using a Thermo Scientific/Dionex Ultimate 3000 HPLC, using a Syncronis C18 column (250 × 4.6 mm, […] pore size), and containing a fluorescence detector. The dansylated polyamine peaks were visualized by excitation at 340 nm and emission at 515 nm. The buffers used for elution of the polyamines were as follows: buffer A: 10 mM sodium heptanesulfonate/10% acetontrile at pH 3.4. Buffer B: 100% acetonitrile. The flow rate was 0.7 mL per minute. The column was equilibrated with 55% buffer B/45% buffer A prior to injection of the sample. Upon injection of the sample, elution of polyamines occurs in an isocratic solution of 55% buffer B/45% buffer A for 28 min. The solution was then slowly ramped to 95% buffer B/5% buffer A for 20 min. This gradient was held for 27 min to elute the spermine peak. The solution was then quickly dropped back to 55% buffer B/45% buffer A to re-equilibrate the column prior to the next sample being injected. Using the relative molar response derived from N-dansylated PA and 1,7 diaminoheptane standards, the amount of N-dansylated polyamines was calculated and normalized to total sample protein.

[2] = Sulforhodamine B (SRB) cytotoxicity assay, neonatal fibroblasts; type: cell-based, human; settings: human, normal primary neonatal fibroblast cells; 72 hrs @500 µM; supplement csv
Procedure: (§1) Our strategy to identify novel ODC inhibitors was to first screen new analogs for ODC inhibition at 50 μM using our in vitro enzyme activity assay and purified human ODC (Table 1). Those showing significant inhibition were then titrated to provide an ODC IC50 followed by cell-based screening against both cancer (Kelly neuroblastoma) and noncancerous (neonatal fibroblasts) cell lines. For the cancer cell line, higher cytotoxicity was desired and for the noncancerous cell line counter screen, lower cytotoxicity was desired.
(§2) Normal primary human neonatal fibroblast cells (ATCC) were maintained in DMEM medium (Gibco) supplemented with 10% heat-inactivated fetal bovine serum (Hyclone), penicillin (100 IU/mL), and streptomycin (100 μg/mL), nonessential amino acids (0.1 mM) and sodium pyruvate (1 mM). Kelly neuroblastoma cells (Sigma-Aldrich) were maintained in RPMI medium (Corning) supplemented with 10% heat-inactivated fetal bovine serum (Hyclone), penicillin (100 IU/mL), and streptomycin (100 μg/mL). Cell lines were routinely monitored for mycoplasma contamination using the MycoAlert PLUS Mycoplasma Detection Kit (Lonza).
(§3) The colorimetric sulforhodamine B (SRB) assay was used to measure cytotoxicity following treatment with ODC inhibitors. Briefly, Kelly neuroblastoma cells and normal primary human neonatal fibroblast cells were plated in transparent flat 96-well plates and allowed to attach overnight. Cells were treated with control or 500 μM ODC inhibitor for 72 h. Cells were then fixed with 10% TCA at 4 °C for 1 h, washed with deionized water, and dried at room temperature. Cells were stained with 100 μL of 0.4% SRB in 1% acetic acid for 20 min at room temperature, rinsed five times with 1% acetic acid and allowed to dry at room temperature. One hundred μL of 10 mM Tris–HCl pH 7.0 was added to each well, shaken for 10 min at room temperature and absorbance was read at 540 nm. Absorbance values were normalized relative to control readings and converted to percentage by multiplying by one hundred. The percent cytotoxicity was then determined by subtracting the relative percentage of the ODC inhibitor treated readings from the control which is 100%.

[3] = tested on: normal primary human neonatal fibroblast cells; experiment: as above; type: cell-based; settings: 500 μM
Procedure: as §1, §2, §3

[4] = tested on: Kelly neuroblastoma cells; experiment: Sulforhodamine B (SRB) cytotoxicity assay, Kelly neuroblastoma cells; type: cell-based
Procedure: as §1, §2, §3

[5] = no reference printed for this property; cited from earlier work
[6] = design: method as in PMID 11004451; settings: due to an amino acid transporter; cited from earlier work
[7] = cited from earlier work
[8] = molecular target: T1, purified human ODC enzyme (Homo sapiens, UniProt P11926); experiment: In vitro ODC enzyme activity assay; type: biochemical; settings: read-out: ODC biochemical inhibition % (50 μM)
T1 construct: His6 (C); made in house; host or cells: E. coli BL21(DE3)
T1 sequence (P11926 1-461): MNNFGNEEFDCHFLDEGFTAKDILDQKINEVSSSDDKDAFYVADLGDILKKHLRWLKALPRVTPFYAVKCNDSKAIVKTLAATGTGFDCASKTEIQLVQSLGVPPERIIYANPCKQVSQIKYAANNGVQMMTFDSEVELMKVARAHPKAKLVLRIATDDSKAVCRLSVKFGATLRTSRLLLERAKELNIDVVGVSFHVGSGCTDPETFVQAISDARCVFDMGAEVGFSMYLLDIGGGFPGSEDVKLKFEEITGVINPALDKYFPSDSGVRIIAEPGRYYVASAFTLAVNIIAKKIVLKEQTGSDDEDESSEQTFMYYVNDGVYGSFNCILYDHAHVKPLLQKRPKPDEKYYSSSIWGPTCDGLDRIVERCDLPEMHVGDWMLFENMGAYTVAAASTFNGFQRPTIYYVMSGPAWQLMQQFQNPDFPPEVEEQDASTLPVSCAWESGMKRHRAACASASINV
Procedure: as §1
In vitro ODC activity was measured using 100 ng of purified human ODC enzyme, as we previously described.[53],[99] ODC was incubated with increasing concentrations of inhibitors for 30 min at room temperature in a buffer containing 25 mM Tris and 0.1 mM EDTA. […] In the cell-based ODC activity assay, Kelly neuroblastoma cells that were treated with 500 μM inhibitors were harvested in a buffer containing 25 mM Tris HCl, 0.1 mM EDTA, and 2.5 mM DTT. […] For both the in vitro and cell-based assay, the microcentrifuge tubes were then placed into scintillation vials containing a piece of filter paper saturated with 200 μL of 0.1 M NaOH to capture the release of radiolabeled carbon dioxide. The samples were incubated in a 37 °C incubator while shaking for 30 min (in vitro) or 2 h (cell-based). The enzymatic reaction was stopped by adding 250 μL of 5 M sulfuric acid to each sample and incubating at 37 °C while shaking for 30 min. The microcentrifuge tubes were removed from the scintillation vials, and 5 mL of scintillation fluid was added. Disintegrations per minute (DPM) of each sample was measured using a TriCarb liquid scintillation counter (PerkinElmer). The specific ODC activity is expressed as nmol CO2/min/mg protein (in vitro) or pmol CO2/min/mg protein (cell-based). The individual ODC inhibitor IC50 values were determined using Graphpad Prism 8.

With `NCCC[C@](N)(C(=O)O)C(F)F` [DFMO, α-difluoromethylornithine] the “Kelly Treated Neuroblastoma Cells (Total Spm)” value ([1]; Control = 2.57+0.47) was 3.52+0.35, the “Kelly Treated Neuroblastoma Cells (Spd)” value ([1]; Control = 8.52+1.63) was 1.99+1.06 and the “Kelly Treated Neuroblastoma Cells (Total Put)” value ([1]; Control = 9.71+1.31) was 0. The “Kelly Treated Neuroblastoma Cells (Total PA)” value ([1]; Control = 20.81 +2.67) was 5.51+1.06, the “putrescine level (in words)” value ([1]; Kelly neuroblastoma cells, Figure 6B) was “undetected” and the “spermidine and spermine levels (in words)” value ([1]; Kelly neuroblastoma cells, relative to APA) was “greatest reductions”. The cytotoxicity at 72 h, 500 µM [2] was 41%, the “cytotoxic activity against neonatal fibroblasts (in words)” value ([3]; 72 h) was “greater cytotoxic activity” and the “Cell cytotoxicity (72 hr @ 500 μM) Neonatal Fibroblasts” value ([3]; 72 hr, percent cytotoxicity) was 41±12%. The “activity against Kelly neuroblastoma cells (in words)” value ([4]; 72 h, 500 μM) was “relatively moderate cytotoxic activity”, the “Cell cytotoxicity (72 hr @ 500 μM) Kelly Neuroblastoma” value ([4]; 72 hr, 500 μM, percent cytotoxicity) was 26±9% and the cytotoxicity at 500 µM ([4]; Kelly, 72 hrs @500 µM, supplement csv, read-out: Kelly Neuroblasoma Cells (72 hrs @500 µM) %cytotoxicity) was 26%. For the same compound, the “water solubility (in words)” value [5] was “water-soluble”, the “permeability (in words)” value [6] was “permeable” and the “clearance (in words)” value [7] was “rapid clearance”. It also gave an inhibition at 50 µM [8] of 47%.
